Consider eight compounds from the supplement of paper PMC11061612.

Holding throughout (assay): Bliss excess, mean over the matrix (fraction); higher = more synergy
Assay [1] concerns 697 (B-Lymphoblastic Leukemia). The method in brief:
(§1)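 After 24 hours at 37°C and 5% CO2 in 1536-well plates, cells in DMEM/F12 or RPMI plus 10% FBS received two-drug dose matrices for 72 hours. Viability came from CellTiter-Glo 2.0 luminescence and was scaled as inhibition, anchored at 0 by vehicle wells and at 1 by blank wells. Combination Emax is taken as the second-highest inhibition in the matrix, and Bliss excess as the observed combination effect less EA + EB − EA·EB, with EA and EB the single-agent effects.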

Assay [2] concerns CFPAC-1 (Pancreatic Carcinoma). The method in brief:
as §1

For assay [3], the system named is COR-L95 (Small Cell Lung Carcinoma). The method in brief:
as §1

The subject of assay [4] is DB (B-Cell Non-Hodgkin's Lymphoma). The method in brief: as §1
The subject of assay [5] is DSH1 (Bladder Carcinoma). The method in brief: as §1
The subject of assay [6] is ES7 (Ewing's Sarcoma). The method in brief: as §1
For assay [7], the system named is IHH-4 (Thyroid Gland Carcinoma). The method in brief: as §1
The subject of assay [8] is J82 (Bladder Carcinoma). The method in brief: as §1
The subject of assay [9] is KARPAS-1106P (B-Cell Non-Hodgkin's Lymphoma). The method in brief:
as §1

For assay [10], the system named is KARPAS-620 (Plasma Cell Myeloma). The method in brief:
as §1

In assay [11] the test system is KATOIII (Gastric Carcinoma). The method in brief: as §1
The subject of assay [12] is LS-513 (Colorectal Carcinoma). The method in brief:
as §1

Assay [13] concerns MDA-MB-157 (Breast Carcinoma). The method in brief:
as §1

Assay [14] has as its system NCI-H1299 (Non-Small Cell Lung Carcinoma). The method in brief:
as §1

Assay [15] has as its system OCI-AML2 (Acute Myeloid Leukemia). The method in brief:
as §1

Assay [16] relates to SN12C (Kidney Carcinoma). The method in brief:
as §1

The subject of assay [17] is SUIT-2 (Pancreatic Carcinoma). The method in brief:
as §1

For assay [18], the system named is SW1088 (Low Grade Glioma). The method in brief: as §1
Assay [19] has as its system KM-H2 (Hodgkin's Lymphoma). The method in brief:
as §1

For assay [20], the system named is NCI-H1694 (Small Cell Lung Carcinoma). The method in brief: as §1

Molecules are shown by their SMILES.

Regarding `CCc1c2c(nc3ccc(O)cc13)-c1cc3c(c(=O)n1C2)COC(=O)[C@]3(O)CC` [SN-38] + O=C(c1cc(Cc2n[nH]c(=O)c3ccccc23)ccc1F)N1CCN(C(=O)C2CC2)CC1 [Olaparib] (first compound max 0.3 µM, 7x7, partner max 10 µM), the Bliss excess in assay [1] is 0.0877; in assay [2], 0.0607; in [3], 0.0044; in [4] it was 0.0534; in assay [5], 0.0007; in assay [6], 0.112. For the same compound, the Bliss excess in assay [7] was 0.0356; in assay [8], 0.0532; in assay [9] it was -0.0008; in assay [10], -0.0221; in assay [11] it was -0.0478; in assay [12], 0.0731. In addition, the Bliss excess is 0.0102 in assay [13]; 0.129 in assay [14]; 0.0787 in [15]; 0.0457 in assay [16]; -0.0211 in assay [17]; 0.0683 in [18].

Regarding `C=CCn1c(=O)c2cnc(Nc3ccc(N4CCN(C)CC4)cc3)nc2n1-c1cccc(C(C)(C)O)n1` [AZD1775] + C1CN(CCC1(C(=O)N[C@@H](CCO)C2=CC=C(C=C2)Cl)N)C3=NC=NC4=C3C=CN4 [Capivasertib] (first compound max 3 µM, partner max 3 µM), the Bliss excess in assay [1] is 0.0337; in assay [2], 0.0135; in assay [3] it was 0.0297; in assay [4], -0.0264; in assay [5], 0.0495; in assay [7], -0.005. In addition, the Bliss excess in assay [8] is -0.0184; in [9] it was 0.0135; in assay [11], -0.0773; in [19], 0.0333; in [12], -0.0514; in assay [13], -0.0818. In addition, the Bliss excess in assay [14] is -0.0756; in assay [15], -0.0405; in assay [16], -0.0516; in assay [17] it was -0.017; in assay [18] it was -0.0707.

With `CN(C)CCCOc1ccc(-c2ccc3ncc4c(c3c2)n(C2CCOCC2)c(=O)n4C)cn1` [AZD0156] + O=C(c1cc(Cc2n[nH]c(=O)c3ccccc23)ccc1F)N1CCN(C(=O)C2CC2)CC1 [Olaparib] (first compound max 3 µM, partner max 3 µM), the Bliss excess in assay [1] was 0.186; in assay [2], -0.0026; in assay [3], -0.11; in [4], 0.149; in assay [5] it was 0.0328; in assay [6], 0.291. Moreover, the Bliss excess in assay [7] was 0.0949; in assay [8], -0.0375; in assay [9], 0.0471; in assay [10], 0.0798; in assay [11], -0.0125; in [19] it was 0.0575. Moreover, the Bliss excess was 0.0071 in assay [12]; -0.0302 in assay [13]; 0.0495 in assay [14]; 0.171 in assay [15]; -0.0357 in assay [16]; 0.028 in assay [17]. Further, the Bliss excess in assay [18] amounted to 0.022.

On to `COc1nnc2ccc(N3CCC(c4ccc(OCCN5CCN(C)C(=O)[C@H]5C)cc4)CC3)nn12` [AZD5153] + CN(CC[C@H](CSC1=CC=CC=C1)NC2=C(C=C(C=C2)S(=O)(=O)NC(=O)C3=CC=C(C=C3)N4CCC(CC4)[C@H](C5=CC=CC=C5C6=CC=C(C=C6)Cl)O)S(=O)(=O)C(F)(F)F)CCO [AZD4320] (first compound max 1 µM, 7x7, partner max 1 µM), for which the Bliss excess was -0.0709 in assay [1]; -0.0328 in [2]; 0.0292 in assay [8]; -0.0319 in assay [19]; 0.0607 in assay [20]; 0.005 in [17].

Consider `C[C@@H](c1ccc2nccn2c1)n1nnc2ncc(-c3cnn(C)c3)nc21` [Savolitinib] + CN(CC[C@H](CSC1=CC=CC=C1)NC2=C(C=C(C=C2)S(=O)(=O)NC(=O)C3=CC=C(C=C3)N4CCC(CC4)[C@H](C5=CC=CC=C5C6=CC=C(C=C6)Cl)O)S(=O)(=O)C(F)(F)F)CCO [AZD4320] (first compound max 1 µM, 7x7, partner max 1 µM), for which the Bliss excess in assay [1] is -0.0412; in assay [2], -0.0545; in [8], 0.0168; in [19] it was -0.0267; in assay [20], -0.042; in [17], 0.0046.

Take `COc1cc2ncnc(Nc3ccc(F)c(Cl)c3)c2cc1OCCCN1CCOCC1` [Gefitinib] + CC(C)n1c(=O)n(C)c2cnc3cc(F)c(-c4ccc(OCCCN5CCCCC5)nc4)cc3c21 [AZD1390] (first compound max 10 µM, 7x7, partner max 0.3 µM): the Bliss excess in [1] was -0.0787; in assay [2], -0.0676; in assay [3], -0.0119; in [4], 0.0332; in assay [5] it was -0.0351; in assay [6], -0.0916. Moreover, the Bliss excess in [7] is -0.043; in assay [8] it was -0.12; in assay [9], -0.0393; in [10], -0.0538; in assay [11], -0.0113; in assay [19] it was -0.0312. The Bliss excess in assay [12] is -0.0362; in assay [13], -0.0453; in assay [14] it was -0.0561; in [15], -0.041; in assay [16], -0.0255; in [17] it was -0.0527. Also, the Bliss excess in [18] is -0.0688.

For the compound `CN(CCO)CC[C@H](CSc1ccccc1)Nc1ccc(S(=O)(=O)NC(=O)c2ccc(N3CCC([C@@H](O)c4ccccc4-c4ccc(Cl)cc4)CC3)cc2)cc1S(=O)(=O)C(F)(F)F` [AZD4320] + Cn1cnc2c(F)c(Nc3ccc(Br)cc3Cl)c(C(=O)NOCCO)cc21 [Selumetinib] (first compound max 1 µM, 7x7, partner max 3 µM), the Bliss excess is 0.0943 in assay [1]; 0.0453 in assay [2]; -0.0067 in assay [3]; -0.0482 in [4]; -0.0405 in assay [5]; 0.026 in assay [6]. In addition, the Bliss excess in assay [7] was 0.0185; in assay [8], -0.0144; in [9] it was -0.0007; in assay [10], 0.0613; in assay [11] it was -0.0086; in assay [19], 0.0106. For the same compound, the Bliss excess is 0.0259 in assay [13]; 0.0505 in assay [14]; 0.0042 in assay [20]; 0.0207 in assay [15]; -0.0015 in [16]; 0.0126 in [17]. Moreover, the Bliss excess in assay [18] amounted to 0.0246.

`Cc1c2c(nn1C)CSCc1cc(n(C)n1)CSc1cc(c3ccccc3c1)OCCCc1c(C(=O)O)n(C)c3c-2c(Cl)ccc13` [AZD5991] + Cc1cc2ncnn2cc1Nc1ncc2c(n1)n(C1CCOCC1)c(=O)n2C [AZD7648] (first compound max 1 µM, 7x7, partner max 10 µM): the Bliss excess in assay [1] was -0.0603; in assay [2], -0.002; in assay [3] it was -0.0957; in assay [4], -0.0087; in [5], -0.095; in assay [6], -0.028. Further, the Bliss excess is -0.0281 in assay [7]; -0.0231 in assay [8]; -0.0016 in [9]; 0.0308 in assay [10]; -0.0305 in assay [11]; 0.0203 in assay [19]. Also, the Bliss excess in assay [12] is 0.002; in assay [13] it was -0.0214; in assay [14], -0.0436; in [20], -0.0059; in [15] it was 0.019; in assay [16], -0.0335. In addition, the Bliss excess in assay [18] is -0.0665.
